Patent US10961236B2, “(S)-2-(1-cyclopropylethyl)-5-(4-methyl-2-((6-(2-oxopyrrolidin-1-yl)pyridin-2-yl)amino) thiazol-5-yl)-7-(methylsulfonyl)isoindolin-1-one as a phosphatidylinositol 3-kinase inhibitor” (AstraZeneca AB, priority 2016, dated 2021)

How the values were obtained:
Format in all cases: biochemical
[1] = biological target: recombinant human PI3Kδ (6-His(p110-p85α)) (Homo sapiens (Human), UniProt O00329); test: Enzymatic activity assay for recombinant human PI3Kδ (ADP-Glo); details: 0.6 nM PI3Kδ, 20 μM ATP, 80 μM DiC8-PIP2, ADP-Glo
Outline: (§1)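 ADP-Glo luminescence after DiC8-PIP2 (80 μM) phosphorylation with 20 μM ATP in 50 mM Tris pH 7.4, 3 mM MgCl2, 2.1 mM DTT, 0.05% CHAPS at room temperature. Enzyme 1.2 nM PI3Kγ or 0.6 nM PI3Kδ; inhibitors pre-incubated 15 min, then 60 min reaction.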

[2] = biological target: recombinant human PI3Kγ ((aa144-1102)-6His) (Homo sapiens (Human), UniProt P48736); test: Enzymatic activity assay for recombinant human PI3Kγ (ADP-Glo); details: 1.2 nM PI3Kγ, 20 μM ATP, 80 μM DiC8-PIP2, ADP-Glo
Outline: as §1

[3] = biological target: recombinant human PI3Kα (6-His(p110-p85α)) (Homo sapiens (Human), UniProt P42336); test: Enzymatic activity assay for recombinant human PI3Kα (ADP-Glo); details: 1.2 nM PI3Kα, 20 μM ATP, 80 μM DiC8-PIP2, ADP-Glo
Outline: (§2)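 ADP-Glo luminescence after DiC8-PIP2 phosphorylation at RT: 80 μM lipid substrate, 20 μM ATP, 1.2 nM enzyme (0.6 nM for δ) in Tris pH 7.4 with MgCl2, DTT, CHAPS. Compounds pre-incubated 15 min with enzyme, then 60 min reaction; DMSO ≤1%.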

[4] = biological target: recombinant human PI3Kβ (6-His(p110-p85α)) (Homo sapiens (Human), UniProt P42338); test: Enzymatic activity assay for recombinant human PI3Kβ (ADP-Glo); details: 1.2 nM PI3Kβ, 20 μM ATP, 80 μM DiC8-PIP2, ADP-Glo
Outline: as §2

recombinant human PI3Kα (6-His(p110-p85α)), sequence (P42336 whole entry): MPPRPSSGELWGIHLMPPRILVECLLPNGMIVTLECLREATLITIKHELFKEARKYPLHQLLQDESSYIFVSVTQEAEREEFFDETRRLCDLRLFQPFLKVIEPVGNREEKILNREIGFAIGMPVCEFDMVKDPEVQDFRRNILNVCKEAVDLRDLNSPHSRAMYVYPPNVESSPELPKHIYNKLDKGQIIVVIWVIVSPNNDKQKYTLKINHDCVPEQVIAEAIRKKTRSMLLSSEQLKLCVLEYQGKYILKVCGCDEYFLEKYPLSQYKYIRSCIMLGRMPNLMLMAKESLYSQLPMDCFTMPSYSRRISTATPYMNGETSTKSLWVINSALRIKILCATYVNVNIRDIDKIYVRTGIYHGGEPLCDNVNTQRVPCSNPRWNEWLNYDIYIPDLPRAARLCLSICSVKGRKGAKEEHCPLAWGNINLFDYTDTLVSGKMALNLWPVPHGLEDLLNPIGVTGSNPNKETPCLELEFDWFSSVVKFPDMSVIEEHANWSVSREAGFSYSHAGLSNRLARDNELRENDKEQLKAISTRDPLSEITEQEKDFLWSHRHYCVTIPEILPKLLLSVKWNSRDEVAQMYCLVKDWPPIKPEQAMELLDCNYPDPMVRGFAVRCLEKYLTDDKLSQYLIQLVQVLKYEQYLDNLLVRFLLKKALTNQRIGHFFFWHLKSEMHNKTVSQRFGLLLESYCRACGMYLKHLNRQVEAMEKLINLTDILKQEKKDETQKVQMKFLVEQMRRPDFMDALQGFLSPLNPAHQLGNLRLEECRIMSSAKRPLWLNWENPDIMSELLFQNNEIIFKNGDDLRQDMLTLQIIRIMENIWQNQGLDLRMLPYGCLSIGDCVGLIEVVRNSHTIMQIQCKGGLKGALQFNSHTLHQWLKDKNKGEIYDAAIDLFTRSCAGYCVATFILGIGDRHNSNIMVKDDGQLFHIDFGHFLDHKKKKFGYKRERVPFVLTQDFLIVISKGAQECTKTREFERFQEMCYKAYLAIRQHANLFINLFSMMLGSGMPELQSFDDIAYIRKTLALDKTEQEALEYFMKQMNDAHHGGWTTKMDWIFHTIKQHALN
recombinant human PI3Kα (6-His(p110-p85α)), sequence (P27986 whole entry partner): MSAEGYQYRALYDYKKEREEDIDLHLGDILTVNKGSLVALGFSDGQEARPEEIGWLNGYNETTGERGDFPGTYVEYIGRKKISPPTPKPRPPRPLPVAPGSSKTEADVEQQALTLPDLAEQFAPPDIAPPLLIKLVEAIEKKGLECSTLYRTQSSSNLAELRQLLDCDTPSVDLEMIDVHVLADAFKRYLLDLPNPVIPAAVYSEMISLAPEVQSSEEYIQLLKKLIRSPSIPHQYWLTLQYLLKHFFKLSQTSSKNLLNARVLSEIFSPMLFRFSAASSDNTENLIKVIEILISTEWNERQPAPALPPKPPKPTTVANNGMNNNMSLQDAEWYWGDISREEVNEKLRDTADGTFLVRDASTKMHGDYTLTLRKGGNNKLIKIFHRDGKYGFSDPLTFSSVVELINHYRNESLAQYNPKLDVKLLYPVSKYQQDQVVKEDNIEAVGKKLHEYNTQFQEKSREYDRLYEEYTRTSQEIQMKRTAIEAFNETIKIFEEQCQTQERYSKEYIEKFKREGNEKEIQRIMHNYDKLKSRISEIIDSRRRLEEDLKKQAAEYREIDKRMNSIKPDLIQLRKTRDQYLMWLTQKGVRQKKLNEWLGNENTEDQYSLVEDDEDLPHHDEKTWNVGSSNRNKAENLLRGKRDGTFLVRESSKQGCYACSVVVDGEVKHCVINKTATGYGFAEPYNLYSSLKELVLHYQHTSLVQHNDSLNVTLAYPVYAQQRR
recombinant human PI3Kγ ((aa144-1102)-6His), sequence (P48736 144-1102): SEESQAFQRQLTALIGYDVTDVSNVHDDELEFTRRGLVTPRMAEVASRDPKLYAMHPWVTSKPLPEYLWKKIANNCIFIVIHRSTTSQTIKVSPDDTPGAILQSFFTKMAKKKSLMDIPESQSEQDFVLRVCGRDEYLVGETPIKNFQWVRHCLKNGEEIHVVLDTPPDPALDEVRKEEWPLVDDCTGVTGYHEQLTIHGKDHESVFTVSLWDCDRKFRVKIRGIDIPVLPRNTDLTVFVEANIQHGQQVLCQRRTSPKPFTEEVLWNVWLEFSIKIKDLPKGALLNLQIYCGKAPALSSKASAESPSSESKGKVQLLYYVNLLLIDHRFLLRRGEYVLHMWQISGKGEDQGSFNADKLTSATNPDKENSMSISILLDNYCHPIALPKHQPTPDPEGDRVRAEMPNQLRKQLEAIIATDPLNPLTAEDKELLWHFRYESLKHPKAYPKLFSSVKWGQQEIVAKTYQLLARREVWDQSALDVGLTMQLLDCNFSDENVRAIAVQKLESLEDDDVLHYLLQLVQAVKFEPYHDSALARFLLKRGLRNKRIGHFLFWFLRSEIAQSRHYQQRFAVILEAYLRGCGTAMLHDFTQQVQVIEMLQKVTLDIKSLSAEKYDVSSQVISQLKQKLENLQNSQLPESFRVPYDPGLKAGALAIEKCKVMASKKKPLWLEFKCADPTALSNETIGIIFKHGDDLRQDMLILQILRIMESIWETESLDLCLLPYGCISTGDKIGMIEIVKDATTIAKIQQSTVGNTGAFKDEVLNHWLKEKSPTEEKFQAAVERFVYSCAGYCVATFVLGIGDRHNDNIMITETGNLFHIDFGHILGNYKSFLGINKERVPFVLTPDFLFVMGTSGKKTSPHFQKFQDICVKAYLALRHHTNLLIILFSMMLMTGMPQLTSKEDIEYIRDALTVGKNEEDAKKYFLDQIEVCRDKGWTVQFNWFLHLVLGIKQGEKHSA
recombinant human PI3Kβ (6-His(p110-p85α)), sequence (P42338 whole entry): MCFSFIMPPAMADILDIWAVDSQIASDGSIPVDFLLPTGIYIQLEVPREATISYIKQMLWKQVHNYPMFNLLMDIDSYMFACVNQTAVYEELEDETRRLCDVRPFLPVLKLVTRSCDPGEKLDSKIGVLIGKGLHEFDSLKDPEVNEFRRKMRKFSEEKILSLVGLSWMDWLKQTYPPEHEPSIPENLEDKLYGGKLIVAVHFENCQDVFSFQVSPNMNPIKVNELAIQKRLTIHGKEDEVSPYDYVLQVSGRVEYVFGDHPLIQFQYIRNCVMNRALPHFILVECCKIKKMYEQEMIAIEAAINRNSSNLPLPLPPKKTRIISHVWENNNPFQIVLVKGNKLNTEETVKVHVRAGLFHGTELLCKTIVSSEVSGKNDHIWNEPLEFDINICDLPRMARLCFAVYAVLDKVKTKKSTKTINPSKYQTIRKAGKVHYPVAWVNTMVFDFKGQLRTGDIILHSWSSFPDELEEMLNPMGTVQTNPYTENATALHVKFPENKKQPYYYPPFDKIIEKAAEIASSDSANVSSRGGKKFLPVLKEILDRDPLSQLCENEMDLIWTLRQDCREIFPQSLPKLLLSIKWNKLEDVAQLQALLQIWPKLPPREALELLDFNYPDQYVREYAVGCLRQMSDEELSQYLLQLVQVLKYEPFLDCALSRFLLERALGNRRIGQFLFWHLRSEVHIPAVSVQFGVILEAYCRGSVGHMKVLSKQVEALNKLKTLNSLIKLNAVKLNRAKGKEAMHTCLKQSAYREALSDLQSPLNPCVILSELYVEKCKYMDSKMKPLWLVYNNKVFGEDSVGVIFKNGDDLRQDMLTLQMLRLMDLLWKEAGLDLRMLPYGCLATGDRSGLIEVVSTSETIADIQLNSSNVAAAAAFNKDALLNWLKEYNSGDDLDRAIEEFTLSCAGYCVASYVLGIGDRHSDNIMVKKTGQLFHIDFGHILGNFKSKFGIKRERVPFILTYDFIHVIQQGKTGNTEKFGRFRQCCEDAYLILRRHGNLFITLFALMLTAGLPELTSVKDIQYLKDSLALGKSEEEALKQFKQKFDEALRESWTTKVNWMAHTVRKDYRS
recombinant human PI3Kβ (6-His(p110-p85α)), sequence (P27986 whole entry partner): as the sequence (P27986 whole entry partner) above
recombinant human PI3Kδ (6-His(p110-p85α)), sequence (O00329 whole entry): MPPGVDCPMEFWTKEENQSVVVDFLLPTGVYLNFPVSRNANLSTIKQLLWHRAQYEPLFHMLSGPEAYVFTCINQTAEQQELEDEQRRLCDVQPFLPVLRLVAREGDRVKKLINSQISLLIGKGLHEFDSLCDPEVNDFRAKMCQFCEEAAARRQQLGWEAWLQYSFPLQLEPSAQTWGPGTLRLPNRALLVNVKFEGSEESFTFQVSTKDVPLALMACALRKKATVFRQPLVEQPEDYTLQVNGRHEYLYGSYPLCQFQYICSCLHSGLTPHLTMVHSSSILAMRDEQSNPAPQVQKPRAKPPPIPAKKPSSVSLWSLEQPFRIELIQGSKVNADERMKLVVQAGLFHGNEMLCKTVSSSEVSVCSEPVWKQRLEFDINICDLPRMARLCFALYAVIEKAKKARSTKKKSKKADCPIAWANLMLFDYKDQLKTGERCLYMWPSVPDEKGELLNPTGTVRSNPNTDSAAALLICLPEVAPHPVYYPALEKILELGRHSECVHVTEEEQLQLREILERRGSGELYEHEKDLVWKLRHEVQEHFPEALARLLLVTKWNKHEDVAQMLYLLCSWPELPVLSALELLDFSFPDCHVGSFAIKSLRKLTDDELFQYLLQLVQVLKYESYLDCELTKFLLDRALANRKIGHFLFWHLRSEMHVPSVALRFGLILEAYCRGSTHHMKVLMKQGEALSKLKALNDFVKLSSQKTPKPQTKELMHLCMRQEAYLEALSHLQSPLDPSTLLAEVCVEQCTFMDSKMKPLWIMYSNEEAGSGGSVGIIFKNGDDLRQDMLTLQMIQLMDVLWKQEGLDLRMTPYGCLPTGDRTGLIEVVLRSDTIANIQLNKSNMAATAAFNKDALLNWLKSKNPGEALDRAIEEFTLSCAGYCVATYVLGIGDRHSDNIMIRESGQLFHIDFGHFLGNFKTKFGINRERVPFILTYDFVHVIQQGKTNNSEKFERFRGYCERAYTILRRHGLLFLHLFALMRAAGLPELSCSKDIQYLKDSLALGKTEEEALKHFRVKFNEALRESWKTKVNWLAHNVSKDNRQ
recombinant human PI3Kδ (6-His(p110-p85α)), sequence (P27986 whole entry partner): as the sequence (P27986 whole entry partner) above

IC50 [1] [nM] | IC50 [2] [nM] | IC50 [3] [nM] | IC50 [4] [nM] | Compound
2.9 | 1.2 | 43 | 998 | CNS(=O)(=O)c1cc(-c2sc(Nc3cccc(N4C(=O)CC[C@@H]4CO)n3)nc2C)cc2c1C(=O)N([C@@H](C)C1CC1)C2 [Example 58, 2-[(1S)-1-Cyclopropylethyl]-6-[2-({6-[(2R)-2-(hydroxymethyl)-5-oxopyrrolidin-1-yl]pyridin-2-yl}amino)-4-methyl-1,3-thiazol-5-yl]-N-methyl-3-oxo-2,3-dihydro-1H-isoindole-4-sulfonamide]
0.7 | 0.9 | 27 | 481 | CNS(=O)(=O)c1cc(-c2sc(Nc3cccc(N4CCN(CCO)CC4=O)n3)nc2C)cc2c1C(=O)N([C@@H](C)C1CC1)C2 [Example 59, 2-[(1S)-1-Cyclopropylethyl]-6-[2-({6-[4-(2-hydroxyethyl)-2-oxopiperazin-1-yl]pyridin-2-yl}amino)-4-methyl-1,3-thiazol-5-yl]-N-methyl-3-oxo-2,3-dihydro-1H-isoindole-4-sulfonamide]
0.5 | 1.2 | 57 | 322 | Cc1nc(Nc2cccc(N3CC[C@H](O)C3=O)n2)sc1-c1cc2c(c(S(=O)(=O)NC(C)C)c1)C(=O)N([C@@H](C)C(F)(F)F)C2 [Example 60, 6-[2-({6-[(3S)-3-Hydroxy-2-oxopyrrolidin-1-yl]pyridin-2-yl}amino)-4-methyl-1,3-thiazol-5-yl]-3-oxo-N-(propan-2-yl)-2-[(2S)-1,1,1-trifluoropropan-2-yl]-2,3-dihydro-1H-isoindole-4-sulfonamide]
2.1 | 0.8 | 162 | 1150 | CC[C@H](C)N1Cc2cc(-c3sc(Nc4cccc(N5CCOCC5=O)n4)nc3C)cc(S(=O)(=O)NC)c2C1=O [Example 62, 2-[(2S)-Butan-2-yl]-N-methyl-6-(4-methyl-2-{[6-(3-oxomorpholin-4-yl)pyridin-2-yl]amino}-1,3-thiazol-5-yl)-3-oxo-2,3-dihydro-1H-isoindole-4-sulfonamide]
0.7 | 1.2 | 32 | 274 | CNS(=O)(=O)c1cc(-c2sc(Nc3cccc(N4CCNC4=O)n3)nc2C)cc2c1C(=O)N([C@@H](C)C(F)(F)F)C2 [Example 63, N-Methyl-6-(4-methyl-2-{[6-(2-oxoimidazolidin-1-yl)pyridin-2-yl]amino}-1,3-thiazol-5-yl)-3-oxo-2-[(2S)-1,1,1-trifluoropropan-2-yl]-2,3-dihydro-1H-isoindole-4-sulfonamide]
